{"source": "patent US11390616B2", "about": "(BRISTOL-MYERS SQUIBB COMPANY, priority 2015, dated 2022)", "data": [{"molecular_target": "T1, human APJ receptor (Homo sapiens, UniProt P35414)", "T1 construct": "expressed in transfected cells; host or cells: HEK293", "T1 sequence (P35414 1-380)": "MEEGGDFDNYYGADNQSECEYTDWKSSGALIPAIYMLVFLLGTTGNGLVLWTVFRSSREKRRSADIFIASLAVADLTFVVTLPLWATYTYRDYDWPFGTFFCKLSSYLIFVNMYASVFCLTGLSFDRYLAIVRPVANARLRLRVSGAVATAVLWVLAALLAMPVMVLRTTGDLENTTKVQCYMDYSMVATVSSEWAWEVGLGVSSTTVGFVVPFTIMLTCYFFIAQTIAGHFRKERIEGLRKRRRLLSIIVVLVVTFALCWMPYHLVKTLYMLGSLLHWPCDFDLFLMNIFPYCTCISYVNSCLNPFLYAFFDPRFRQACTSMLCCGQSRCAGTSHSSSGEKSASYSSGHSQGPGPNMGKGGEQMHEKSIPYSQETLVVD", "assay": "Intracellular cAMP accumulation assay (APJ hcAMP, HTRF)", "assay_type": "cell-based", "conditions": "HEK293 cells stably expressing human APJ receptor; inhibition of forskolin-mediated cAMP production; read-out: APJ cAMP Potency range", "outline": "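Inhibition of forskolin (2 μM)-driven cAMP, with […], measured by HTRF after 30 min room-temperature compound exposure of stably transfected HEK293 cells. cAMP read from a standard curve; variable-slope fit gives EC50, and maximal inhibition is normalised to (Pyr1)apelin-13 as 100%.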", "units": {"EC50": "nM"}, "values": [{"smiles": "CCOCc1nc(=O)c(Cc2ccc(-c3ccnc(F)c3C)cc2)c(O)n1[C@@H](COC)c1cc(F)cc(F)c1", "note": "[Example 126, 1-[(1R)-1-(3,5-difluorophenyl)-2-methoxyethyl]-2-(ethoxymethyl)-5-{[4-(2-fluoro-3-methylpyridin-4-yl)phenyl]methyl}-6-hydroxy-1,4-dihydropyrimidin-4-one]", "EC50": "0.01 to 10"}, {"smiles": "CCCCc1nc(=O)c(Cc2cccc(-c3ccncc3C)c2)c(O)n1[C@@H](CC)c1cc(F)cc(F)c1", "note": "[Example 127, 2-butyl-1-[(1S)-1-(3,5-difluorophenyl)propyl]-6-hydroxy-5-{[3-(3-methylpyridin-4-yl)phenyl]methyl}-1,4-dihydropyrimidin-4-one]", "EC50": "10 to 100"}, {"smiles": "CCCCc1nc(=O)c(Cc2cccc(-c3ccnc(F)c3C)c2)c(O)n1[C@@H](CC)c1cc(F)cc(F)c1", "note": "[Example 128, 2-butyl-1-[(1S)-1-(3,5-difluorophenyl)propyl]-5-{[3-(2-fluoro-3-methylpyridin-4-yl)phenyl]methyl}-6-hydroxy-1,4-dihydropyrimidin-4-one]", "EC50": "10 to 100"}, {"smiles": "CCCCc1nc(=O)c(Cc2cccc(-c3cccnc3C)c2)c(O)n1[C@@H](CC)c1cc(F)cc(F)c1", "note": "[Example 129, 2-butyl-1-[(1S)-1-(3,5-difluorophenyl)propyl]-6-hydroxy-5-{[3-(2-methylpyridin-3-yl)phenyl]methyl}-1,4-dihydropyrimidin-4-one]", "EC50": "10 to 100"}, {"smiles": "CCCCc1nc(=O)c(Cc2cccc(-c3ccc(F)nc3C)c2)c(O)n1[C@@H](CC)c1cc(F)cc(F)c1", "note": "[Example 130, 2-butyl-1-[(1S)-1-(3,5-difluorophenyl)propyl]-5-{[3-(6-fluoro-2-methylpyridin-3-yl)phenyl]methyl}-6-hydroxy-1,4-dihydropyrimidin-4-one]", "EC50": "0.01 to 10"}, {"smiles": "CCCCc1nc(=O)c(Cc2cccc(-c3ccc(F)cc3C(N)=O)c2)c(O)n1[C@@H](CC)c1cc(F)cc(F)c1", "note": "[Example 131, 3′-({2-butyl-1-[(1S)-1-(3,5-difluorophenyl)propyl]-6-hydroxy-4-oxo-1,4-dihydropyrimidin-5-yl}methyl)-4-fluoro-[1,1′-biphenyl]-2-carboxamide]", "EC50": "10 to 100"}, {"smiles": "CC[C@@H](c1cc(F)cc(F)c1)n1c(-c2ccn(CC)n2)nc(=O)c(Cc2ccc(-c3ccnc(F)c3C)cc2)c1O", "note": "[Example 132, 1-[(1S)-1-(3,5-difluorophenyl)propyl]-2-(1-ethyl-1H-pyrazol-3-yl)-5-{[4-(2-fluoro-3-methylpyridin-4-yl)phenyl]methyl}-6-hydroxy-1,4-dihydropyrimidin-4-one]", "EC50": "0.01 to 10"}, {"smiles": "CC[C@@H](c1cc(F)cc(F)c1)n1c(-c2ccn(CC)n2)nc(=O)c(Cc2ccc(-c3cccnc3C)cc2)c1O", "note": "[Example 133, 1-[(1S)-1-(3,5-difluorophenyl)propyl]-2-(1-ethyl-1H-pyrazol-3-yl)-6-hydroxy-5-{[4-(2-methylpyridin-3-yl)phenyl]methyl}-1,4-dihydropyrimidin-4-one]", "EC50": "0.01 to 10"}, {"smiles": "CC[C@@H](c1cc(F)cc(F)c1)n1c(-c2ccn(CC)n2)nc(=O)c(Cc2ccc(-c3ccc(F)nc3C)cc2)c1O", "note": "[Example 134, 1-[(1S)-1-(3,5-difluorophenyl)propyl]-2-(1-ethyl-1H-pyrazol-3-yl)-5-{[4-(6-fluoro-2-methylpyridin-3-yl)phenyl]methyl}-6-hydroxy-1,4-dihydropyrimidin-4-one]", "EC50": "0.01 to 10"}, {"smiles": "CC[C@@H](c1cc(F)cc(F)c1)n1c(-c2ccn(CC)n2)nc(=O)c(Cc2ccc(-c3ccc(F)nc3)cc2)c1O", "note": "[Example 135, 1-[(1S)-1-(3,5-difluorophenyl)propyl]-2-(1-ethyl-1H-pyrazol-3-yl)-5-{[4-(6-fluoropyridin-3-yl)phenyl]methyl}-6-hydroxy-1,4-dihydropyrimidin-4-one]", "EC50": "0.01 to 10"}, {"smiles": "CC[C@@H](c1cc(F)cc(F)c1)n1c(-c2ccn(CC)n2)nc(=O)c(Cc2ccc(-c3ccncc3C)cc2)c1O", "note": "[Example 136, 1-[(1S)-1-(3,5-difluorophenyl)propyl]-2-(1-ethyl-1H-pyrazol-3-yl)-6-hydroxy-5-{[4-(3-methylpyridin-4-yl)phenyl]methyl}-1,4-dihydropyrimidin-4-one]", "EC50": "0.01 to 10"}]}]}
